Experimental data taken from patent US20250281430A1, “BUPROPION AS A MODULATOR OF DRUG ACTIVITY” (ANTECIP BIOVENTURES II LLC, priority 2022, published 2025).
Counter-ions that a name gives are not always drawn.

Tests used:
[1] = Solubility of the powder in water; assay type: physicochemical
[2] = Pharmacokinetics after administration of the subject combination; details: for Cmax relative to the peak level of bupropion: after administration of the subject combination; for apparent elimination half-life (metabolite): subject combination

## CC(NC(C)(C)C)C(=O)c1cccc(Cl)c1 (racemic) [Bupropion hydrochloride, (±)-1-(3-chlorophenyl)-2-[(1,1-dimethylethyl)amino]-1-propanone hydrochloride]
[1]
  solubility in water: highly soluble in water

## COc1ccc2c(c1)[C@]13CCCC[C@@H]1[C@H](C2)N(C)CC3 [dextromethorphan, reference compound]
[2]; co-administered with bupropion, steady state, dextromethorphan 30 to 60 mg, bupropion 75 to 150 mg
  dose proportionality of pharmacokinetics (AUC and Cmax): nonlinear pharmacokinetics at steady state
[2]; subject combination with food
  Cmax when administered with food: unchanged

## CC(NC(C)(C)C)C(O)c1cccc(Cl)c1 (stereo not drawn) [erythrohydroxybupropion]
[2]
  Cmax relative to the peak level of bupropion: approximately equal to
  apparent elimination half-life (metabolite): ~44 h

## C[C@H]1NC(C)(C)CO[C@]1(O)c1cccc(Cl)c1 [hydroxybupropion]
[2]
  Cmax relative to the peak level of bupropion: approximately 14 times
  apparent elimination half-life (metabolite): approximately 35 hours

## C[C@H](NC(C)(C)C)[C@@H](O)c1cccc(Cl)c1 [threohydroxybupropion]
[2]
  Cmax relative to the peak level of bupropion: about 5 times
  apparent elimination half-life (metabolite): ~33 h
